Measurements as given in ChEMBL document CHEMBL4483862, “Open-source discovery of chemical leads for next-generation chemoprotective antimalarials” (2018).

Tested on: Plasmodium berghei
Assay: Luciferase/luciferin-expressing antifolate-resistant parasites were used to infect a culture of HepG2 cells that were pre-incubated with compounds. Infected hepatocytes emit light due to the luciferase reaction. Assay results are presented as the percent inhibition of light emission compared to control. […]
Assay type: functional
Conditions: sporozoite; for IC90: read-out: LUCIFERASE INFECTION ASSAY - IC90

SMILES | IC90 [µM] | also measured
CCS(=O)(=O)N1Cc2ccccc2CC1C(=O)Nc1nc2ccc(F)cc2s1 (stereo not given) | > 10 | IC50 (PBLUC_HILL_SLOPE 0.63, PBLUC_R_SQUARED 0.752, read-out: LUCIFERASE INFECTION ASSAY - IC50): 2.29 µM
OCc1ccc(-c2cn3c(-c4cccc(Cl)c4)cnc3cn2)cc1 | > 9.83 | IC50 (PBLUC_HILL_SLOPE 0.56, PBLUC_R_SQUARED 0.237, read-out: LUCIFERASE INFECTION ASSAY - IC50): > 9.83 µM
CCCn1nc(C(=O)OCC(=O)c2cc(C)n(CC(F)(F)F)c2C)c2ccccc2c1=O | > 10 | IC50 (PBLUC_HILL_SLOPE 0.53, PBLUC_R_SQUARED 0.241, read-out: LUCIFERASE INFECTION ASSAY - IC50): > 10 µM
COc1ccc(C)cc1CN1CCN(c2ccc(S(=O)(=O)NC(C)(C)C)cc2[N+](=O)[O-])CC1 | > 10 | IC50 (PBLUC_HILL_SLOPE 0.589, PBLUC_R_SQUARED 0.215, read-out: LUCIFERASE INFECTION ASSAY - IC50): > 10 µM
CCOC(=O)c1c(/C=C/C(=O)Nc2nc(C)cs2)c(C)n(CC)c1C | > 10 | IC50 (PBLUC_HILL_SLOPE 0.644, PBLUC_R_SQUARED 0.0145, read-out: LUCIFERASE INFECTION ASSAY - IC50): > 10 µM
O=C1C=CC(=O)N1c1ccccc1Oc1ccc(Cl)cc1Cl | > 9.88 | IC50 (PBLUC_HILL_SLOPE 0.641, PBLUC_R_SQUARED 0.0559, read-out: LUCIFERASE INFECTION ASSAY - IC50): > 9.88 µM
O=C(Nc1ccc2nc(Cc3ccccc3)nn2c1)Nc1cccs1 | > 3.33 | IC50 (PBLUC_HILL_SLOPE 0.558, PBLUC_R_SQUARED 0.579, read-out: LUCIFERASE INFECTION ASSAY - IC50): 0.969 µM
CCCN1CCN(C(=O)c2ccc(-c3ccc(C(C)=O)cc3)o2)CC1 | > 10 | IC50 (PBLUC_HILL_SLOPE 0.574, PBLUC_R_SQUARED 0.0124, read-out: LUCIFERASE INFECTION ASSAY - IC50): > 10 µM
O=C(Nc1cnc2ccccc2c1)c1cccc(NC(=O)c2cccs2)c1 | > 10 | IC50 (PBLUC_HILL_SLOPE 0.461, PBLUC_R_SQUARED 0.664, read-out: LUCIFERASE INFECTION ASSAY - IC50): 0.217 µM
O=C(NCCc1nc(-c2ccccc2)no1)c1cc2cc(Cl)ccc2o1 | > 8.97 | IC50 (PBLUC_HILL_SLOPE 0.5, PBLUC_R_SQUARED 0.259, read-out: LUCIFERASE INFECTION ASSAY - IC50): > 8.97 µM
C#CCSc1nnc(-c2ccc(C(C)(C)C)cc2)n1-c1ccc(C(C)C)cc1 | > 8.47 | IC50 (PBLUC_HILL_SLOPE 0.5, PBLUC_R_SQUARED 0.648, read-out: LUCIFERASE INFECTION ASSAY - IC50): > 8.47 µM
O=C(Cc1coc2cc3c(cc12)CCC3)OCc1nccn1C(F)F | > 10 | IC50 (PBLUC_HILL_SLOPE 0.616, PBLUC_R_SQUARED 0.411, read-out: LUCIFERASE INFECTION ASSAY - IC50): > 10 µM
CC1CCN(C(=O)COC(=O)c2cc(-c3ccc(Cl)cc3)nc3ccccc23)c2ccccc2S1 (stereo not given) | > 10 | IC50 (PBLUC_HILL_SLOPE 0.574, PBLUC_R_SQUARED 0.62, read-out: LUCIFERASE INFECTION ASSAY - IC50): 2.73 µM
COCCn1c(C(=O)OC)c(NC(=O)c2ccco2)c2cc(NCCc3ccccc3)cnc21 | > 7.14 | IC50 (PBLUC_HILL_SLOPE 0.526, PBLUC_R_SQUARED 0.429, read-out: LUCIFERASE INFECTION ASSAY - IC50): 4.07 µM
O=C(O)c1c2c(nc3ccccc13)/C(=C/c1ccccc1Cl)CC2 | > 10 | IC50 (PBLUC_HILL_SLOPE 0.525, PBLUC_R_SQUARED 0.706, read-out: LUCIFERASE INFECTION ASSAY - IC50): 0.569 µM
Cc1cc(Oc2c(C)cccc2C)c2ccccc2n1 | > 12.5 | IC50 (PBLUC_HILL_SLOPE 0.514, PBLUC_R_SQUARED 0.0638, read-out: LUCIFERASE INFECTION ASSAY - IC50): > 12.5 µM
O=C(Nc1cccc(C(F)(F)F)c1)Nc1cnn(-c2ccc(Cl)cc2)c1C(F)(F)F | > 7.35 | IC50 (PBLUC_HILL_SLOPE 0.579, PBLUC_R_SQUARED 0.471, read-out: LUCIFERASE INFECTION ASSAY - IC50): 1.04 µM
Fc1cccc(NC(=S)NN=C2CCCCCC2)c1 | > 11.8 | IC50 (PBLUC_HILL_SLOPE 0.519, PBLUC_R_SQUARED 0.189, read-out: LUCIFERASE INFECTION ASSAY - IC50): > 11.8 µM
CN(C)CCCNc1cc(N(C)C)c(N)c2c1C(=O)c1ccccc1C2=O | > 9.01 | IC50 (PBLUC_HILL_SLOPE 0.553, PBLUC_R_SQUARED 0.182, read-out: LUCIFERASE INFECTION ASSAY - IC50): > 9.01 µM
FC(F)(F)c1cccc(NC(=S)NC2CC3C=CC2C3)c1 (stereo not given) | > 10.6 | IC50 (PBLUC_HILL_SLOPE 0.542, PBLUC_R_SQUARED 0.315, read-out: LUCIFERASE INFECTION ASSAY - IC50): 4.71 µM

SMILES | IC90 [µM] | also measured
CCOC(=O)c1c(Sc2ccccc2)cnn1C(=O)Nc1cccc(Cl)c1 | > 8.21 | IC50 (PBLUC_HILL_SLOPE 0.46, PBLUC_R_SQUARED 0.851, read-out: LUCIFERASE INFECTION ASSAY - IC50): > 8.21 µM
COC(=O)C1=C(Sc2ccc(Cl)cc2)CSC1 | > 11.5 | IC50 (PBLUC_HILL_SLOPE 0.458, PBLUC_R_SQUARED 0.122, read-out: LUCIFERASE INFECTION ASSAY - IC50): > 11.5 µM
Cc1cc(-c2nc(=O)c3ccccc3[nH]2)c(C)n1-c1cccc(S(=O)(=O)N2CCOCC2)c1 | > 10 | IC50 (PBLUC_HILL_SLOPE 0.619, PBLUC_R_SQUARED 0.0201, read-out: LUCIFERASE INFECTION ASSAY - IC50): > 10 µM
CCc1cccc2c(/C=C(/C(=O)NCc3ccccn3)c3nc4ccccc4[nH]3)c[nH]c12 | > 10 | IC50 (PBLUC_HILL_SLOPE 0.583, PBLUC_R_SQUARED 0.274, read-out: LUCIFERASE INFECTION ASSAY - IC50): > 10 µM
Cc1ccc(NC(=O)c2[nH]nc3c2CCCC3)cc1Cl | > 2 | IC50 (PBLUC_HILL_SLOPE 0.552, PBLUC_R_SQUARED 0.432, read-out: LUCIFERASE INFECTION ASSAY - IC50): 0.0735 µM
O=S(=O)(c1ccc(C(F)(F)F)cn1)c1cccs1 | > 11.3 | IC50 (PBLUC_HILL_SLOPE 0.531, PBLUC_R_SQUARED 0.132, read-out: LUCIFERASE INFECTION ASSAY - IC50): > 11.3 µM
CCCN(CCC)C(=S)NC(=O)c1cccc([N+](=O)[O-])c1 | > 10.7 | IC50 (PBLUC_HILL_SLOPE 0.519, PBLUC_R_SQUARED 0.204, read-out: LUCIFERASE INFECTION ASSAY - IC50): > 10.7 µM
CC(C)(C)CC(=O)Nc1ccc2nc(-c3cccs3)nn2c1 | > 10 | IC50 (PBLUC_HILL_SLOPE 0.64, PBLUC_R_SQUARED 0.361, read-out: LUCIFERASE INFECTION ASSAY - IC50): 2.36 µM
Cc1cc(/C=C(\C#N)C(=O)OCc2ccccn2)c(C)n1CC(C)C | > 10 | IC50 (PBLUC_HILL_SLOPE 0.483, PBLUC_R_SQUARED 0.335, read-out: LUCIFERASE INFECTION ASSAY - IC50): 6.62 µM
CCOC(=O)c1c(NC(=O)Cn2c(=O)c(C#N)c3n(c2=O)CCC3)sc(C)c1CC | > 10 | IC50 (PBLUC_HILL_SLOPE 0.645, PBLUC_R_SQUARED 0.0864, read-out: LUCIFERASE INFECTION ASSAY - IC50): > 10 µM
O=C(NCC1CC1)Nc1csc(Cc2c(Cl)cccc2Cl)n1 | > 9.26 | IC50 (PBLUC_HILL_SLOPE 0.58, PBLUC_R_SQUARED 0.694, read-out: LUCIFERASE INFECTION ASSAY - IC50): > 9.26 µM
Cc1cc(=O)oc2cc(OCc3ccc(C(=O)Nc4nc5ccccc5[nH]4)cc3)ccc12 | > 10 | IC50 (PBLUC_HILL_SLOPE 0.6, PBLUC_R_SQUARED 0.47, read-out: LUCIFERASE INFECTION ASSAY - IC50): 3.19 µM
CN1CCN(c2ccc(-c3cn4c(-c5ccccc5Cl)cnc4cn3)cn2)CC1 | > 8.15 | IC50 (PBLUC_HILL_SLOPE 0.491, PBLUC_R_SQUARED 0.57, read-out: LUCIFERASE INFECTION ASSAY - IC50): 3.67 µM
COc1ccc(CCNC(=O)c2ccc3cc[nH]c3c2)cc1 | > 11.2 | IC50 (PBLUC_HILL_SLOPE 0.599, PBLUC_R_SQUARED 0.245, read-out: LUCIFERASE INFECTION ASSAY - IC50): 4.75 µM
COc1cccc(C(=O)N(c2nc3ccccc3s2)c2c(C)cccc2C)c1 | > 10 | IC50 (PBLUC_HILL_SLOPE 0.58, PBLUC_R_SQUARED 0.199, read-out: LUCIFERASE INFECTION ASSAY - IC50): > 10 µM
O=C(CCc1ccc2c(c1)OCO2)Nc1nc(-c2ccc(Br)s2)cs1 | > 10 | IC50 (PBLUC_HILL_SLOPE 0.607, PBLUC_R_SQUARED 0.509, read-out: LUCIFERASE INFECTION ASSAY - IC50): 5.99 µM
CN(C)CC(C)(C)CNc1nn2cc(-c3ccccc3)nc2s1 | > 10 | IC50 (PBLUC_HILL_SLOPE 0.619, PBLUC_R_SQUARED 0.654, read-out: LUCIFERASE INFECTION ASSAY - IC50): 0.732 µM
C=c1onc(-c2c(F)cccc2Cl)c1=C1NC(c2cc(C(F)(F)F)cc(C(F)(F)F)c2)=NO1 | > 6.71 | IC50 (PBLUC_HILL_SLOPE 0.442, PBLUC_R_SQUARED 0.157, read-out: LUCIFERASE INFECTION ASSAY - IC50): > 6.71 µM
Cc1ccc2nc(NC(=O)c3ccc(F)c(F)c3)c(C(=O)NCC(C)C)n2c1 | > 8.54 | IC50 (PBLUC_HILL_SLOPE 0.472, PBLUC_R_SQUARED 0.144, read-out: LUCIFERASE INFECTION ASSAY - IC50): > 8.54 µM
COc1ccc(/C=N/OCC(=O)Nc2ccccc2C(F)(F)F)cc1 | > 10 | IC50 (PBLUC_HILL_SLOPE 0.525, PBLUC_R_SQUARED 0.458, read-out: LUCIFERASE INFECTION ASSAY - IC50): > 10 µM
